The values below come from PubChem BioAssay (NCI).

Among the test systems are A549 NSCLC; CCRF-CEM leukemia; DU-145 prostate; HOP-92 NSCLC; HT29 colon; IGROV1 ovarian; MCF7 breast; OVCAR-5 ovarian; SK-MEL-28 melanoma; TK-10 renal.
What all share (experiment): growth of human tumour cells (NCI), 48 h

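Method: 48-hour compound exposure of cells in 96-well plates, five concentrations, linear interpolation of endpoints. GI50 marks 50% less growth. TGI: concentration producing complete growth inhibition.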

As to `c1ccc2c(-c3cnn4cc(-c5ccc(N6CCNCC6)cc5)cnc34)ccnc2c1`, the GI50 in the assay on A549 NSCLC was 0.766 µM; in the assay on CCRF-CEM leukemia, 0.196 µM; in the assay on DU-145 prostate it was 0.739 µM; with HOP-92 NSCLC, 1.59 µM; with HT29 colon it was 0.547 µM; with IGROV1 ovarian, 0.801 µM. The GI50 in the assay with MCF7 breast is 0.429 µM; with OVCAR-5 ovarian it was 0.806 µM; in the assay with SK-MEL-28 melanoma, 0.182 µM; in the assay with TK-10 renal, 1.76 µM. Also, the TGI with A549 NSCLC turned out to be 1.99 µM; in the assay on CCRF-CEM leukemia it was 0.447 µM; in the assay on DU-145 prostate, 2.06 µM; with HOP-92 NSCLC, 3.03 µM; in the assay with HT29 colon, 1.91 µM; in the assay with IGROV1 ovarian, 2.23 µM. The TGI with MCF7 breast came to 1.7 µM; with OVCAR-5 ovarian, 2.24 µM; in the assay with SK-MEL-28 melanoma, 0.35 µM; with TK-10 renal, 3.2 µM.

Regarding `Cc1[nH]c(=O)nc(N/N=C/c2ccc(Cl)cc2)c1C(=O)Nc1ccc(Cl)cc1`, the TGI in the assay on A549 NSCLC was above 63.1 µM; with CCRF-CEM leukemia it was above 100 µM; in the assay with DU-145 prostate it was above 100 µM; in the assay on HOP-92 NSCLC it was 77.8 µM; in the assay with HT29 colon it was above 100 µM; with IGROV1 ovarian it was above 100 µM. In addition, the TGI in the assay on MCF7 breast is above 100 µM; with OVCAR-5 ovarian, above 100 µM; in the assay with SK-MEL-28 melanoma it was above 86.1 µM; in the assay on TK-10 renal, 56.9 µM.

Take `Cc1ccc(N(/C=C/C(=O)C(F)(F)F)CC(=O)c2ccc(Cl)c(Cl)c2)cc1`: the GI50 in the assay on A549 NSCLC was 9.37 µM; in the assay with CCRF-CEM leukemia, 4.89 µM; with DU-145 prostate, 5.77 µM; in the assay on HOP-92 NSCLC, 8.77 µM; in the assay with HT29 colon it was 4.73 µM; with IGROV1 ovarian, 5.75 µM. In addition, the GI50 in the assay on MCF7 breast was 7.27 µM; in the assay on OVCAR-5 ovarian it was 4.7 µM; in the assay with SK-MEL-28 melanoma, 11.2 µM; in the assay with TK-10 renal, 12.1 µM. Moreover, the TGI stood at 21.3 µM in the assay with A549 NSCLC; 20.8 µM in the assay with CCRF-CEM leukemia; 20.3 µM in the assay with DU-145 prostate; 21.1 µM in the assay with HOP-92 NSCLC; 17.9 µM with HT29 colon; 18.6 µM with IGROV1 ovarian. For the same compound, the TGI turned out to be 20.2 µM with MCF7 breast, 20.6 µM in the assay on OVCAR-5 ovarian, 23.2 µM in the assay with SK-MEL-28 melanoma and 24.5 µM in the assay with TK-10 renal.

On to `Cc1cccc2c(N=Nc3ccccc3[N+](=O)[O-])c(O)[nH]c12`, for which the TGI with A549 NSCLC is above 61.7 µM; in the assay with CCRF-CEM leukemia it was above 43.6 µM; in the assay with DU-145 prostate it was above 100 µM; in the assay with HOP-92 NSCLC, 8.16 µM; with HT29 colon, above 52.7 µM; in the assay with IGROV1 ovarian, above 50.5 µM. The TGI with MCF7 breast was 24.3 µM; in the assay on OVCAR-5 ovarian it was above 69.2 µM; in the assay with SK-MEL-28 melanoma, above 100 µM; in the assay with TK-10 renal it was 16.9 µM.

As for `CNC12C3C4C1C1C2C3C41C(=O)N[C@H](C(=O)N(C)[C@H](C[C@@H](OC(C)=O)c1nc(C(=O)N[C@@H](Cc2ccccc2)C[C@H](C)C(=O)OC)cs1)C(C)C)C1CC1` (stereo partly drawn), the GI50 in the assay with A549 NSCLC is 1.53 µM; in the assay with CCRF-CEM leukemia it was 0.318 µM; with DU-145 prostate it was 0.317 µM; in the assay on HOP-92 NSCLC, 1.8 µM; with HT29 colon it was 0.257 µM; in the assay on IGROV1 ovarian, 0.172 µM. Further, the GI50 in the assay with MCF7 breast was 0.0405 µM; in the assay with OVCAR-5 ovarian, 2.2 µM; in the assay with SK-MEL-28 melanoma, 2.13 µM; with TK-10 renal it was 0.562 µM. In addition, the TGI in the assay on A549 NSCLC was above 15 µM; in the assay on CCRF-CEM leukemia it was 3.02 µM; in the assay on DU-145 prostate, above 3.68 µM; in the assay on HOP-92 NSCLC, 8.93 µM; in the assay with HT29 colon, 1.28 µM; with IGROV1 ovarian, above 13.4 µM. Moreover, the TGI in the assay with MCF7 breast, in the assay on OVCAR-5 ovarian, in the assay on SK-MEL-28 melanoma and in the assay on TK-10 renal was above 15 µM each time.

Take `CCOC(=O)Nc1ccc(C(=O)/C=C/c2ccccc2)cc1`: the GI50 is 30.1 µM in the assay on A549 NSCLC; 36.9 µM in the assay with CCRF-CEM leukemia; 22.8 µM in the assay on DU-145 prostate; 11.2 µM with HOP-92 NSCLC; 10.1 µM with HT29 colon; 19.3 µM in the assay on IGROV1 ovarian. In addition, the GI50 with MCF7 breast was 3.14 µM; in the assay with OVCAR-5 ovarian, 28.9 µM; with SK-MEL-28 melanoma it was 59 µM; in the assay on TK-10 renal, 28.9 µM. For the same compound, the TGI with A549 NSCLC was above 100 µM; in the assay with CCRF-CEM leukemia, above 100 µM; with DU-145 prostate, 85.1 µM; with HOP-92 NSCLC, 66.5 µM; in the assay on HT29 colon, above 100 µM; in the assay on IGROV1 ovarian, above 100 µM. Further, the TGI is 33.9 µM with MCF7 breast, 90.5 µM in the assay with OVCAR-5 ovarian, above 100 µM in the assay with SK-MEL-28 melanoma and 86.5 µM in the assay on TK-10 renal.

With `CNC(=O)/C(=C/c1ccc(OC)cc1)c1cc(OC)c(OC)c(OC)c1`, the TGI is above 100 µM in the assay with A549 NSCLC; above 100 µM in the assay on CCRF-CEM leukemia; above 43 µM with DU-145 prostate; above 60.2 µM with HOP-92 NSCLC; 17.5 µM with HT29 colon; above 100 µM in the assay with IGROV1 ovarian. Further, the TGI with MCF7 breast is above 51.4 µM; in the assay with OVCAR-5 ovarian it was above 93.3 µM; in the assay on SK-MEL-28 melanoma, above 100 µM; with TK-10 renal it was above 100 µM.

In the case of `C[n+]1cc2cc3c(cc2c2ccccc21)OCO3`, the GI50 was 2.41 µM in the assay on A549 NSCLC; 8.71 µM with CCRF-CEM leukemia; 4.49 µM in the assay on DU-145 prostate; 2.77 µM with HOP-92 NSCLC; 3.77 µM in the assay on HT29 colon; 0.982 µM in the assay with IGROV1 ovarian. For the same compound, the GI50 is 2.61 µM in the assay with MCF7 breast, 16.5 µM in the assay on OVCAR-5 ovarian, 3.49 µM in the assay with SK-MEL-28 melanoma and 8.33 µM in the assay with TK-10 renal. In addition, the TGI is 14.4 µM in the assay on A549 NSCLC; above 100 µM in the assay with CCRF-CEM leukemia; 25.9 µM with DU-145 prostate; 23.8 µM with HOP-92 NSCLC; 23 µM in the assay with HT29 colon; 58 µM in the assay on IGROV1 ovarian. The TGI in the assay on MCF7 breast is 17.3 µM; with OVCAR-5 ovarian, above 100 µM; in the assay with SK-MEL-28 melanoma it was 14.3 µM; with TK-10 renal, 61.4 µM.

On to `C/C(=C1/N=C(c2ccccc2)OC1=O)c1ccccc1`, for which the TGI with A549 NSCLC, in the assay on CCRF-CEM leukemia, in the assay with DU-145 prostate, in the assay on HOP-92 NSCLC, with HT29 colon and with IGROV1 ovarian was above 100 µM throughout. In addition, the TGI in the assay with MCF7 breast, in the assay with OVCAR-5 ovarian, with SK-MEL-28 melanoma and with TK-10 renal was above 100 µM in each case.

For the compound `COc1ccc2c(c1)C(=O)c1c-2n(CCCN=[N+]=[N-])c(=O)c2cc(N)ccc12`, the GI50 in the assay on A549 NSCLC is above 100 µM; with CCRF-CEM leukemia it was above 100 µM; in the assay on DU-145 prostate it was above 100 µM; in the assay on HOP-92 NSCLC, 58.8 µM; with HT29 colon, 47.6 µM; with IGROV1 ovarian, above 100 µM. Also, the GI50 in the assay with MCF7 breast, with OVCAR-5 ovarian and with TK-10 renal was above 100 µM each time. Besides, the TGI with A549 NSCLC, in the assay on CCRF-CEM leukemia, in the assay on DU-145 prostate, in the assay with HOP-92 NSCLC, in the assay with HT29 colon and with IGROV1 ovarian was above 100 µM throughout. Moreover, the TGI in the assay with MCF7 breast, in the assay with OVCAR-5 ovarian, in the assay with SK-MEL-28 melanoma and in the assay on TK-10 renal was above 100 µM in each case.

For `CC(=O)OC1CC2(O)C(CCC3(C)C(c4ccc(=O)oc4)CCC32O)C2(C)CCC(OC3OC(CO)C(O)C(O)C3O)C=C12` (stereo not drawn), the GI50 with A549 NSCLC is below 0.01 µM; with CCRF-CEM leukemia, below 0.01 µM; with DU-145 prostate, 0.0183 µM; with HOP-92 NSCLC, 0.0494 µM; in the assay with HT29 colon, 0.045 µM; in the assay on IGROV1 ovarian it was 0.0318 µM. Moreover, the GI50 was 0.0183 µM with MCF7 breast, 0.044 µM in the assay on OVCAR-5 ovarian, 0.049 µM in the assay with SK-MEL-28 melanoma and 0.0226 µM in the assay with TK-10 renal. Moreover, the TGI in the assay on A549 NSCLC was 0.0278 µM; in the assay on CCRF-CEM leukemia it was 0.115 µM; in the assay with DU-145 prostate, 0.0594 µM; with HOP-92 NSCLC, 0.318 µM; in the assay on HT29 colon, 0.381 µM; with IGROV1 ovarian, 0.272 µM. Moreover, the TGI with MCF7 breast turned out to be 0.167 µM; with OVCAR-5 ovarian it was 0.168 µM; in the assay on SK-MEL-28 melanoma, 0.231 µM; in the assay on TK-10 renal, 0.201 µM.

Take `O=C(NCCNC(=O)c1ccc(F)cc1)Nc1ccc(-n2cc(-c3ccncc3)c(-c3ccc(Cl)c(O)c3)n2)cc1`: the GI50 in the assay with A549 NSCLC is 1.75 µM; in the assay with CCRF-CEM leukemia it was 0.336 µM; with DU-145 prostate, 0.411 µM; in the assay on HOP-92 NSCLC, 0.465 µM; in the assay on HT29 colon it was 0.377 µM; in the assay with IGROV1 ovarian it was 0.659 µM. For the same compound, the GI50 is 0.323 µM in the assay on MCF7 breast, 1.03 µM in the assay on OVCAR-5 ovarian, 1.38 µM in the assay on SK-MEL-28 melanoma and 2.49 µM in the assay with TK-10 renal. For the same compound, the TGI in the assay with A549 NSCLC is 9.38 µM; in the assay with CCRF-CEM leukemia it was above 100 µM; with DU-145 prostate it was above 100 µM; with HOP-92 NSCLC it was 5.23 µM; in the assay on HT29 colon, 1.41 µM; in the assay with IGROV1 ovarian, above 100 µM. The TGI was above 100 µM with MCF7 breast, 9.82 µM in the assay with OVCAR-5 ovarian and above 100 µM in the assay with SK-MEL-28 melanoma.
